Our source for the Reduction, Activity and Probability values is ChEMBL document CHEMBL1121488, “Effects of phosphonium compounds on Schistosoma mansoni” (1980).

Each structure is given as a SMILES string. Where only a bound is given, the exact number is not on record here.

Assay [1] has as its system Schistosoma mansoni. The assay can be described thus: Percentage reduction in carbachol response on Schistosoma mansoni. The class given is functional.
Assay [2] concerns Schistosoma mansoni. Nature of the assay: Effect on the carbachol-induced paralytic response on Schistosoma mansoni at 10E-4 (phosphonium treated). Format: functional. On the set-up: unit not given here.
The test system of assay [3] is Schistosoma mansoni. Nature of the assay: Probability that there was effect on carbachol response. Format: functional.
Assay [4] relates to Schistosoma mansoni. The assay can be described thus: Probability that the compound had no effect on carbachol response; NS = no significant. The class given is functional, organism-based.

`Br.Br.NCCCCC[PH](c1ccccc1)(c1ccccc1)c1ccccc1` yielded a Reduction in the assay with Schistosoma mansoni [1] of 13.1%. Moreover, the Activity in the assay on Schistosoma mansoni [2] is -81.3. The compound also had a Probability in the assay with Schistosoma mansoni [3] of under 0.05.

`BrCCC[P+](c1ccccc1)(c1ccccc1)c1ccccc1.[Br-]`: in the assay on Schistosoma mansoni [1], the Reduction is on record as 45.3%. Also, the Activity in the assay on Schistosoma mansoni [2] is reported as -35. In addition, the Probability in the assay on Schistosoma mansoni [3] is under 0.01.

For the compound `[Br-].[Br-].c1ccc([P+](CC[P+](c2ccccc2)(c2ccccc2)c2ccccc2)(c2ccccc2)c2ccccc2)cc1`, the Reduction in the assay with Schistosoma mansoni [1] came out at 117.8%. The same compound showed an Activity in the assay with Schistosoma mansoni [2] of 13.3. The compound further returned a Probability with Schistosoma mansoni [3] of under 0.001.

`Br.Br.CCCNCCC[PH](c1ccccc1)(c1ccccc1)c1ccccc1` came in with a Reduction in the assay on Schistosoma mansoni [1] of 0.97%. The Activity in the assay on Schistosoma mansoni [2] is -71.7. Further, the Probability entry with Schistosoma mansoni [4] is “No significance”.

In turn, `[Br-].[Br-].c1ccc([P+](CCCCCC[P+](c2ccccc2)(c2ccccc2)c2ccccc2)(c2ccccc2)c2ccccc2)cc1` registered a Reduction in the assay with Schistosoma mansoni [1] of 94.3%. This compound also registered an Activity in the assay with Schistosoma mansoni [2] of -4.6. This compound also gave a Probability in the assay with Schistosoma mansoni [3] of under 0.001.

`Br.Br.NCC[PH](c1ccccc1)(c1ccccc1)c1ccccc1` displayed a Reduction in the assay with Schistosoma mansoni [1] of 14.6%. Further, the Activity in the assay on Schistosoma mansoni [2] is on record as -67.8. Moreover, the Probability entry in the assay on Schistosoma mansoni [4] is “No significance”.

The compound `[Br-].[Br-].c1ccc([P+](CCC[P+](c2ccccc2)(c2ccccc2)c2ccccc2)(c2ccccc2)c2ccccc2)cc1` gave a Reduction with Schistosoma mansoni [1] of 102.6%. Besides, the Activity with Schistosoma mansoni [2] is reported as 2. This compound registered a Probability in the assay on Schistosoma mansoni [3] of under 0.001.

`CC[P+](c1ccccc1)(c1ccccc1)c1ccccc1.[Br-]` [ETHYLTRIPHENYLPHOSPHONIUM BROMIDE]: the Reduction with Schistosoma mansoni [1] is on record as 27%. This compound also showed an Activity in the assay on Schistosoma mansoni [2] of -63.8. Moreover, the Probability in the assay on Schistosoma mansoni [3] is under 0.02.

For the compound `[Br-].c1ccc(C[P+](c2ccccc2)(c2ccccc2)c2ccccc2)cc1`, in the assay on Schistosoma mansoni [1], the Reduction is reported as 27.1%. For the same compound, the Activity in the assay with Schistosoma mansoni [2] was -55.1. This compound also gave a Probability in the assay with Schistosoma mansoni [3] of under 0.05.

In turn, `Br.Br.CCCCCNCCC[PH](c1ccccc1)(c1ccccc1)c1ccccc1` displayed a Reduction in the assay with Schistosoma mansoni [1] of 58.2%. In the assay with Schistosoma mansoni [2], this compound came in with an Activity of -31.8. The Probability in the assay with Schistosoma mansoni [3] is listed as under 0.001.

Turning to `Br.Br.CCCCCCNCCC[PH](c1ccccc1)(c1ccccc1)c1ccccc1`, the Reduction in the assay with Schistosoma mansoni [1] stood at 62.4%. This compound returned an Activity in the assay on Schistosoma mansoni [2] of -35.4. Besides, the Probability in the assay on Schistosoma mansoni [3] is under 0.0001.

As for `N#CCCC[P+](c1ccccc1)(c1ccccc1)c1ccccc1.[Br-]`, in the assay with Schistosoma mansoni [1], the Reduction is on record as 10.3%. Further, the Activity in the assay with Schistosoma mansoni [2] is -73. Besides, the Probability entry in the assay with Schistosoma mansoni [4] was “No significance”.

As to `[Br-].[Br-].c1ccc([P+](CCCCC[P+](c2ccccc2)(c2ccccc2)c2ccccc2)(c2ccccc2)c2ccccc2)cc1`, the Reduction with Schistosoma mansoni [1] is 76.1%. Also, the Activity in the assay with Schistosoma mansoni [2] is reported as -19.7. Besides, the Probability with Schistosoma mansoni [3] was under 0.001.

In the assay with Schistosoma mansoni [1], `Br.Br.CCNCCC[PH](c1ccccc1)(c1ccccc1)c1ccccc1` displayed a Reduction of 18.6%. In addition, the Activity in the assay on Schistosoma mansoni [2] was -72. The Probability with Schistosoma mansoni [3] is recorded as under 0.05.

`Br.Br.CCCCNCCC[PH](c1ccccc1)(c1ccccc1)c1ccccc1` yielded a Reduction in the assay on Schistosoma mansoni [1] of 22.8%. In addition, in the assay with Schistosoma mansoni [2], the Activity was -70.3. The compound also showed a Probability in the assay with Schistosoma mansoni [3] of under 0.001.
